Source: patent US20160206688A1, “METHODS FOR TREATING BACTEREMIA AND OSTEOMYELITIS USING ORITAVANCIN” (THE MEDICINES COMPANY, priority 2013, published 2016)
Converted amounts (≈) assume the structure as drawn. Read-outs that look alike come from different tables or passages of the source.

What was measured:
Assay in all cases: Broth microdilution MIC, European bacteraemia isolates 2010-2012
E. faecium = type: cell-based, Enterococcus faecium; settings: for % Resistant, CLSI / % Susceptible, CLSI: CLSI M100-S23 breakpoints; for MIC90 / MIC50: Enterococcus faecium; for MIC90 / MIC50 / MIC 50% / MIC Range: Table 2; for MIC90: read-out: MIC 90%; for MIC50: read-out: MIC 50%; for % Resistant, EUCAST / % Susceptible, EUCAST: EUCAST 2013 breakpoints
Method: (§1) A total of 2,904 clinical strains responsible for documented bacteremia among unique hospitalized patients in 38 hospitals in 11 European Union countries. Israel, Russia, Turkey and Ukraine were included in this study (2010-2012). Isolates were submitted to a central monitoring laboratory (JMI Laboratories, North Liberty. Iowa. USA), following previously established protocols. Bacterial species identification was performed by using an automated system (Vitek®2; bioMèrieux, Hazelwood, Mo., USA) or conventional biochemical algorithms, as required.
(§2) Isolates were tested for susceptibility by broth microdilution methods following the Clinical and Laboratory Standards Institute (CLSI; M07-A9, 2012) document. Susceptibility testing was performed in cation-adjusted Mueller-Hinton broth (CA-MHB) using dry-form panels manufactured by Thermo Fisher Scientific, formerly TREK Diagnostics Systems/Sensititre (Cleveland. Ohio, USA). These panels provide results equivalent to the CLSI-approved broth microdilution method supplemented with 0.002% polysorbate-80.
(§3) Quality assurance was performed by concurrent testing of CLSI-recommended (M100-S23, 2013) strains: E. faecalis ATCC 29212 and S. aureus ATCC 29213. Interpretation of comparator MIC results was in accordance with published CLSI (M100-S23) and European Committee on Antimicrobial Susceptibility Testing (EUCAST, 2013) criteria.

[1] = tested on: Coagulase-negative staphylococci; type: cell-based, coagulase-negative staphylococci (CoNS); settings: Coagulase-negative staphylococci (646); for % Resistant, CLSI: CLSI M100-S23 breakpoints; for MIC50 / MIC90: Table 2; for MIC50: read-out: MIC 50%; for MIC90: read-out: MIC 90%
Method: as §1, §2, §3

S. aureus = type: cell-based; settings: S. aureus Methicillin-resistant (1,708); for % Resistant, CLSI / % Susceptible, CLSI: CLSI M100-S23 breakpoints; for % Resistant, EUCAST / % Susceptible, EUCAST: EUCAST 2013 breakpoints; for MIC50 / MIC90: Staphylococcus aureus, Table 2; for MIC50: read-out: MIC 50%; for MIC90: read-out: MIC 90%
Method: as §1, §2, §3

E. faecalis = type: cell-based, Enterococcus faecalis; settings: for % Resistant, CLSI / % Susceptible, CLSI: CLSI M100-S23 breakpoints; for MIC50 / MIC90: Enterococcus faecalis; for MIC50: read-out: MIC 50%; for MIC90: read-out: MIC 90%
Method: as §1, §2, §3

[2] = E. faecium Vancomycin-resistant (VanA-phenotype) (153)
[3] = E. faecium Vancomycin-susceptible (257)
[4] = E. faecalis (445), EUCAST 2013 breakpoints

Row | Compound | % Resistant, CLSI (E. faecium; [2]) [%] | % Susceptible, CLSI (E. faecium; [2]) [%] | % Resistant, CLSI (E. faecium; [3]) [%] | % Susceptible, CLSI (E. faecium; [3]) [%] | MIC90 (E. faecium; [2]) [µg/mL] | MIC50 (E. faecium; [3]) [µg/mL] | MIC90 (E. faecium; [3]) [µg/mL] | MIC 50% (E. faecium; [2]) [µg/mL] | % Resistant, CLSI [1] [%] | MIC50 [1] [µg/mL] | MIC90 [1] [µg/mL] | % Resistant, CLSI (S. aureus) [%] | % Susceptible, CLSI (S. aureus) [%] | % Resistant, EUCAST (S. aureus) [%] | % Susceptible, EUCAST (S. aureus) [%] | MIC50 (S. aureus) [µg/mL] | % Resistant, CLSI (E. faecalis; E. faecalis (445)) [%] | % Susceptible, CLSI (E. faecalis; E. faecalis (445)) [%] | MIC50 (E. faecalis; Table 2, E. faecalis (445)) [µg/mL] | MIC90 (E. faecalis; Table 2, E. faecalis (445)) [µg/mL] | further results
1 | CC[C@H]1OC(=O)[C@H](C)[C@@H](O[C@H]2C[C@@](C)(OC)[C@@H](O)[C@H](C)O2)[C@H](C)[C@@H](O[C@@H]2O[C@H](C)C[C@H](N(C)C)[C@H]2O)[C@](C)(O)C[C@@H](C)C(=O)[C@H](C)[C@@H](O)[C@]1(C)O [Erythromycin] | 98.1 | 0.0 | 91.4 | 3.5 | > 4 | > 4 | > 4 | >4 | 65.1 | > 4 | > 4 | 68.0 | 29.6 | 69.1 | 29.8 | > 4 | 54.8 | 8.1 | > 4 | > 4 | MIC90 (S. aureus): > 4 µg/mL
2 | C[C@H]1COc2c(N3CCN(C)CC3)c(F)cc3c(=O)c(C(=O)O)cn1c23 [Levofloxacin] | 100.0 | 0.0 | 89.1 | 5.8 | > 4 | > 4 | > 4 | >4 | 56.2 | 4 (≈ 11.1 µM) | > 4 | 90.3 | 8.6 | 90.3 | 8.6 | > 4 | 35.3 | 64.3 | 1 (≈ 2.77 µM) | > 4 | MIC Range (E. faecium; [2]): >4 µg/mL; MIC90 (S. aureus): > 4 µg/mL
3 | CC1(C)S[C@@H]2[C@H](NC(=O)[C@H](N)c3ccccc3)C(=O)N2[C@H]1C(=O)O [Ampicillin] | 100.0 | 0.0 | 94.2 | 5.8 | > 8 | > 8 | > 8 | >8 |  |  |  |  |  |  |  |  | 0.0 | 100.0 | ≤ 1 | 2 (≈ 5.72 µM) | % Resistant, EUCAST (E. faecium; [2]): 100.0%; % Susceptible, EUCAST (E. faecium; [2]): 0.0%; % Resistant, EUCAST (E. faecium; [3]): 94.2%; % Susceptible, EUCAST (E. faecium; [3]): 5.4%; MIC Range (E. faecium; [2]): >8 µg/mL; % Resistant, EUCAST (E. faecalis; [4]): 0.0%; % Susceptible, EUCAST (E. faecalis; [4]): 99.6%; % susceptible (E. faecalis; E. faecalis strains, criteria not stated): 99.6%; MIC 50% (E. faecalis; Table 2, E. faecalis (445)): ≦1 mg/L; MIC Range (E. faecalis; Table 2, E. faecalis (445), includes four VanA-phenotype strains): ≦1-8 mg/L
4 | Cc1onc(-c2ccccc2)c1C(=O)N[C@@H]1C(=O)N2[C@@H]1SC(C)(C)[C@@H]2C(=O)O [Oxacillin] |  |  |  |  |  |  |  |  | 78.8 | > 2 | > 2 |  |  |  |  |  |  |  |  |  | 
